Measured values published in patent US8106063B2, “Pyrimidyl sulphone amide derivatives as chemokine receptor modulators” (AstraZeneca AB, priority 2002, dated 2012).

Molecular target: T1, hrCXCR2 (Homo sapiens, UniProt P25025)
T1 construct: expressed in transfected cells; host or cells: HEK 293 cells (ECACC No. 85120602), membranes of the highest expressing clone
T1 sequence (P25025 1-360): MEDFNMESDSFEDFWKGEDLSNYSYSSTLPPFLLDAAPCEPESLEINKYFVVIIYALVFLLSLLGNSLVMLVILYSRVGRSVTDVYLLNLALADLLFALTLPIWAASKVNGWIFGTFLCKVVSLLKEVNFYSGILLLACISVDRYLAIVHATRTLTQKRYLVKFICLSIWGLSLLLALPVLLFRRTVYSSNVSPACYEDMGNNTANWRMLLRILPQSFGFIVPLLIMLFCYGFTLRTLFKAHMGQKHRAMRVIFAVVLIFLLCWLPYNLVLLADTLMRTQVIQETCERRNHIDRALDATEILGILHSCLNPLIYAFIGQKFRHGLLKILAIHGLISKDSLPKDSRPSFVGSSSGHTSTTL
Assay: Ligand binding assay ([125I]IL-8 binding to hrCXCR2 membranes)
Settings: ~50 pM [125I]IL-8, membranes of HEK 293 cells expressing hrCXCR2, 1.5 hours at room temperature

`Cc1cccc(CSc2nc(NC(C)(C)CO)cc(NS(C)(=O)=O)n2)c1F` [Example 116, N-{2-[(2-Fluoro-3-methylbenzyl)thio]-6-[(2-hydroxy-1,1-dimethylethyl)amino]-pyrimidin-4-yl}methanesulfonamide] gave an IC50 of 158 nM.
